Laboratory results: US11214803B2, “Modulators of YAP1 expression” (Ionis Pharmaceuticals, Inc., priority 2019, dated 2022)
Strand notation (5' to 3'): a small letter for the sugar, then the base; units joined by * are phosphorothioate-linked, units joined directly phosphodiester-linked; [ ] holds rarer units or linkages, { } end groups; capitals alone tell only the bases. e = 2'-O-(2-methoxyethyl) (MOE); k = constrained ethyl (cEt); [5mC] = 5-methylcytosine; d = 2'-deoxy (DNA); m = 2'-O-methyl

These substances were tested on Yap1 mRNA (assay: Antisense inhibition of human Yap1 in SNU-449 cells by modified oligonucleotides, single dose (Example 5, RTS36584)). Conditions: Table 39; SNU-449 cells, 10,000 cells per well, free uptake, 2,000 nM oligonucleotide, approx. 48 hours; RTS36584; normalized to RIBOGREEN; Yap1 mRNA relative to untreated control.
Type: cell-based
Summary of the method: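 Each modified oligonucleotide is applied by free uptake to SNU-449 cultures at 2,000 nM, and total RNA is harvested around 48 h later. Yap1 transcript, quantified with the RTS36584 set and corrected for RIBOGREEN RNA content, is given as % UTC. Asterisks mark sequences overlapping the amplicon.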

| Substance | YAP1 (% UTC) |
| --- | --- |
| 1198388 (kT*dA*dT*dA*dA*d[5mC]*dT*dG*dG*dG*d[5mC]*kA*eA*kA*eT*kT; antisense) [Compound 1198388] | 90 |

Same assay, conditions: Table 40 (separate experiment); SNU-449 cells, 10,000 cells per well, free uptake, 2,000 nM oligonucleotide, approx. 48 hours; RTS36584; normalized to RIBOGREEN; Yap1 mRNA relative to untreated control

| Substance | YAP1 (% UTC) |
| --- | --- |
| 1198444 (kT*dT*dT*dA*dA*dA*dG*dT*dG*dT*dA*kT*eG*kT*e[5mC]*kA; antisense) [Compound 1198444] | 70 |
| 1198730 (kT*eA*kT*dA*dT*dT*dA*dG*dA*dG*dT*dA*eT*eG*kT*kG; antisense) [Compound 1198730] | 57 |
| 1198755 (kT*eG*k[5mC]*dT*dT*dT*dG*dG*dA*dA*dG*dA*eT*e[5mC]*kT*kG) [Compound 1198755] | 32 |
| 1198425 (kA*d[5mC]*dT*d[5mC]*dT*dT*dA*dT*dA*dT*dG*kG*eT*kT*eT*kT; antisense) [Compound 1198425] | 35 |

Same assay, conditions: Table 41; SNU-449 cells, 10,000 cells per well, free uptake, 2,000 nM modified oligonucleotide, approximately 48 hours; RTS36584; normalized to RIBOGREEN; Yap1 mRNA relative to untreated control cells

| Substance | YAP1 (% UTC) |
| --- | --- |
| 1198667 (antisense kA*kG*dT*dG*d[5mC]*dT*dT*dT*dG*dG*dA*dA*kG*eA*kT*e[5mC]) [Compound 1198667] | 40 |
| 1198634 (kT*kG*dG*dA*dA*dA*dT*dT*dG*dT*d[5mC]*dT*k[5mC]*eA*kT*eG; antisense) [Compound 1198634] | 34 |
| 1198663 (antisense k[5mC]*kT*dT*dT*dG*dG*dA*dA*dG*dA*dT*d[5mC]*kT*eG*kA*eA) [Compound 1198663] | 76 |

Same assay, conditions: Table 42 (separate experiment); SNU-449 cells, 10,000 cells per well, free uptake, 2,000 nM modified oligonucleotide, approximately 48 hours; RTS36584; normalized to RIBOGREEN; Yap1 mRNA relative to untreated control cells

| Substance | YAP1 (% UTC) |
| --- | --- |
| 1198226 (kG*k[5mC]*dA*d[5mC]*dT*dT*dT*dT*dA*d[5mC]*dA*eT*eT*eA*kG*kG) [Compound 1198226] | 23 |
| 1198685 (antisense k[5mC]*kA*dA*d[5mC]*dT*d[5mC]*dT*dT*dA*dT*dA*dT*kG*eG*kT*eT) [Compound 1198685] | 70 |
| 1198680 (antisense k[5mC]*kT*dT*dA*dT*dA*dT*dG*dG*dT*dT*dT*kT*eG*kT*eG) [Compound 1198680] | 28 |
| 1198223 (k[5mC]*kT*dT*dT*dT*dA*d[5mC]*dA*dT*dT*dA*eG*eG*eA*kA*k[5mC]) [Compound 1198223] | 94 |
| 1198701 (kT*kT*dA*dA*dA*dG*dT*dG*dT*dA*dT*dG*kT*e[5mC]*kA*eG; antisense) [Compound 1198701] | 46 |

Same assay, conditions: Table 43 experiment; SNU-449 cells, 10,000 cells per well, free uptake, 2,000 nM, approximately 48 hours; RTS36584; Yap1 mRNA normalized to RIBOGREEN, relative to untreated control cells

| Substance | YAP1 (% UTC) |
| --- | --- |
| 1198218 (kA*kG*dG*dT*dA*dT*dA*dA*d[5mC]*dT*dG*eG*eG*e[5mC]*kA*kA; antisense) [Compound 1198218] | 40 |
| 1198253 (kA*d[5mC]*dT*d[5mC]*dT*dT*dA*dT*dA*dT*dG*eG*eT*eT*kT*kT; antisense) [Compound 1198253] | 50 |
| 1198459 (antisense kA*kA*dA*dT*dT*dG*dT*d[5mC]*dT*d[5mC]*dA*eT*kG*e[5mC]*k[5mC]*eT) [Compound 1198459] | 28 |
| 1198255 (k[5mC]*kA*dA*d[5mC]*dT*d[5mC]*dT*dT*dA*dT*dA*eT*eG*eG*kT*kT; antisense) [Compound 1198255] | 84 |

Same assay, conditions: Table 44 experiment; SNU-449 cells, 10,000 cells per well, free uptake, 2,000 nM, approximately 48 hours; RTS36584; Yap1 mRNA normalized to RIBOGREEN, relative to untreated control cells

| Substance | YAP1 (% UTC) |
| --- | --- |
| 1198500 (kA*kT*dT*dT*dA*dG*dG*dA*dT*dG*d[5mC]*eA*kT*eG*kG*eT; antisense) [Compound 1198500] | 17 |
| 1198535 (kA*kA*dG*dT*dA*dA*dG*dG*dT*dT*dT*e[5mC]*k[5mC]*e[5mC]*kA*eG; antisense) [Compound 1198535] | 35 |
| 1198509 (kT*k[5mC]*dT*dT*dA*dT*dA*dT*dG*dG*dT*eT*kT*eT*kG*eT; antisense) [Compound 1198509] | 20 |
| 1198510 (k[5mC]*kT*d[5mC]*dT*dT*dA*dT*dA*dT*dG*dG*eT*kT*eT*kT*eG; antisense) [Compound 1198510] | 8 |

Same assay, conditions: Table 45; Yap1 mRNA as percent of untreated control, SNU-449 cells, single dose

| Substance | YAP1 (% UTC) |
| --- | --- |
| 1198948 (kG*kA*d[5mC]*dA*dA*d[5mC]*dT*d[5mC]*dT*dT*dA*kT*dA*kT*dG*kG; antisense) [Compound 1198948] | 96 |

Same assay, conditions: Table 46; Yap1 mRNA as percent of untreated control, SNU-449 cells, single dose

| Substance | YAP1 (% UT) |
| --- | --- |
| 1198853 (kA*kT*dT*d[5mC]*dA*dG*dA*dT*dT*dT*dA*kG*eG*kA*eT*kG; antisense) [Compound 1198853] | 105 |
| 1198843 (kA*kG*dT*dG*d[5mC]*dT*dT*dT*dG*dG*dA*kA*eG*kA*eT*k[5mC]; antisense) [Compound 1198843] | 45 |

Same assay, conditions: Table 48; Yap1 mRNA level relative to untreated control; modified oligonucleotides targeting SEQ ID NO.: 1 and 2

| Substance | YAP1 (% UT) |
| --- | --- |
| 1197204 (antisense k[5mC]*kA*kA*d[5mC]*dT*d[5mC]*dT*dT*dA*dT*dA*dT*dG*kG*kT*kT) [Compound 1197204] | 89 |

Same assay, conditions: Table 49; Yap1 mRNA level relative to untreated control; modified oligonucleotides targeting SEQ ID NO.: 1 and 2

| Substance | YAP1 (% UT) |
| --- | --- |
| 1198552 (antisense kA*kG*kA*dG*dT*dA*dT*dG*dT*dG*dG*d[5mC]*kA*kA*kT*eA) [Compound 1198552] | 17 |
| 1095547 (antisense kA*k[5mC]*kT*dG*dA*dG*dG*dT*dA*dT*dA*dA*k[5mC]*eT*kG*eG) [Compound 1095547] | 42 |
| 1198306 (kA*kA*k[5mC]*dA*d[5mC]*dT*dG*dA*dG*dG*dT*dA*kT*eA*kA*e[5mC]; antisense) [Compound 1198306] | 64 |
| 1198571 (antisense kA*kG*k[5mC]*dA*d[5mC]*dT*dT*dT*dT*dA*d[5mC]*dA*kT*kT*kA*eG) [Compound 1198571] | 32 |

Same assay, conditions: Table 50; Yap1 mRNA remaining as percent of untreated control (UT), SNU-449 cells, single dose

| Substance | YAP1 (% UT) |
| --- | --- |
| 1197294 (kG*k[5mC]*kA*d[5mC]*mU*dT*dT*dT*dA*d[5mC]*dA*dT*dT*kA*kG*kG; antisense) [Compound 1197294] | 25 |
| 1198589 (antisense k[5mC]*kA*kG*dA*dT*dT*dT*dA*dG*dG*dA*dT*kG*k[5mC]*kA*eT) [Compound 1198589] | 24 |
| 1198599 (antisense k[5mC]*kA*kA*d[5mC]*dT*d[5mC]*dT*dT*dA*dT*dA*dT*kG*kG*kT*eT) [Compound 1198599] | 90 |
| 1197229 (antisense kG*kG*kA*dA*mA*dT*dT*dG*dT*d[5mC]*dT*d[5mC]*dA*kT*kG*k[5mC]) [Compound 1197229] | 21 |
| 1198607 (antisense kA*kT*kG*dT*dA*dA*dT*dA*dT*dT*dG*d[5mC]*kA*kA*kT*e[5mC]) [Compound 1198607] | 77 |

Same assay, conditions: Table 51; Yap1 mRNA remaining as percent of untreated control (UT), SNU-449 cells, single dose

| Substance | YAP1 (% UT) |
| --- | --- |
| 1197253 (antisense kA*kG*kT*dG*mC*dT*dT*dT*dG*dG*dA*dA*dG*kA*kT*k[5mC]) [Compound 1197253] | 58 |
| 1197261 (kT*k[5mC]*kT*dT*mA*dT*dA*dT*dG*dG*dT*dT*dT*kT*kG*kT) [Compound 1197261] | 91 |
| 1197317 (kA*kG*kA*d[5mC]*mU*dA*dA*dG*dT*dA*dA*dG*dG*kT*kT*kT; antisense) [Compound 1197317] | 78 |
| 1200795 (kT*kA*kG*dA*dG*mU*dA*dT*dG*dT*dG*dG*d[5mC]*kA*kA*kT; antisense) [Compound 1200795] | 30 |
| 1197302 (k[5mC]*kA*kG*dA*mU*dT*dT*dA*dG*dG*dA*dT*dG*k[5mC]*kA*kT; antisense) [Compound 1197302] | 54 |
| 1197264 (kA*kT*kT*dG*mC*dA*dA*dT*d[5mC]*dT*dG*dT*d[5mC]*kT*kG*kA) [Compound 1197264] | 33 |

Same assay, conditions: Table 52; Yap1 mRNA, modified oligonucleotides targeting SEQ ID NO: 1 and 2

| Substance | YAP1 (% UT) |
| --- | --- |
| 1200817 (kA*kG*k[5mC]*dA*d[5mC]*mU*dT*dT*dT*dA*d[5mC]*dA*dT*kT*kA*kG; antisense) [Compound 1200817] | 38 |

Same assay, conditions: Yap1 mRNA, percent of untreated control; modified oligonucleotides targeting SEQ ID NO: 1 and 2; Table 47

| Substance | YAP1 (% UT) |
| --- | --- |
| 1074463 (kT*kA*kG*dA*dG*dT*dA*dT*dG*dT*dG*dG*d[5mC]*kA*kA*kT; antisense) [Compound 1074463] | 20 |
